Reference: ChEMBL document CHEMBL6153097, “Design, synthesis, and biological evaluation of Flavokavain B derivatives as potent TRF2 inhibitors for the treatment of Osteosarcoma” (Eur J Med Chem, 2025)
Activity calls are given as the source filed them. No cut-off for these calls is given here.

Key:
U2OS [1] = assay: (§1) Inhibition of TRF2 expression in human U2OS cells at 2 uM measured after 48 hrs by Western blot analysis relative to control; type: functional
[2] = (§2) Inhibition of TRF2 expression in human MG-63 cells at 2 uM measured after 48 hrs by Western blot analysis relative to control; type: functional
[3] = as §1; type: functional
MG-63 [4] = assay: as §2; type: functional
U2OS [5] = assay: Antiproliferative activity against human U2OS cells assessed as reduction in cell viability incubated for 48 hrs by MTT assay; type: functional, cell-based
MG-63 [6] = assay: Antiproliferative activity against human MG-63 cells assessed as reduction in cell viability incubated for 48 hrs by MTT assay; type: functional, cell-based; settings: MG-63, 48 h
[7] = Cytotoxicity against […] MLO-Y4 cells assessed as cell viability incubated for 48 hrs by MTT assay; type: toxicity, cell-based; settings: mouse

| IC50 (U2OS [5]) [µM] | Compound | inhibition (U2OS [1]) | inhibition at 2 µM [2] [%] | inhibition at 2 µM [3] [%] | inhibition (MG-63 [4]) | IC50 (MG-63 [6]) [µM] | IC50 at 48 h [7] [µM] |
| --- | --- | --- | --- | --- | --- | --- | --- |
|  | COc1cc(OC2CCCOC2)ccc1C(=O)/C=C/c1cc(Br)cc(Br)c1 (stereo not given) | inactive | 32.2 |  |  |  |  |
|  | COc1cc(N2CCOCC2)ccc1C(=O)/C=C/c1cccc(Br)c1 |  | 22.7 | 25.1 |  |  |  |
|  | COc1ccc(C(=O)/C=C/c2cc(Br)cc(Br)c2)c(OC)c1 |  | 52.5 | 22.5 |  |  |  |
|  | COc1cc(OC)c2c(=O)cc(-c3cccc(Br)c3)oc2c1 |  | 23.8 | 33.7 |  |  |  |
|  | COc1cc(OCC(=O)O)ccc1C(=O)/C=C/c1cccc(Br)c1 |  |  | 52.5 | inactive |  |  |
|  | CCOc1ccc(C(=O)/C=C/c2cccc(Br)c2)c(OCC)c1 | inactive | 36.1 |  |  |  |  |
|  | COc1cc(O)ccc1C(=O)/C=C/c1cccc(Br)c1 |  |  | 9.3 | inactive |  |  |
|  | COc1cc(O)ccc1C(=O)/C=C/c1cc(Br)cc(Br)c1 |  | 22.2 | 42.1 |  |  |  |
|  | COc1cc(O)c(C(=O)/C=C/c2cc(Br)cc(Br)c2)c(OC)c1 |  | 22.1 | 13.8 |  |  |  |
| 8.75 | COc1cc(O)c(C(=O)/C=C/c2cccc(Br)c2)c(OC)c1 |  | 37.8 | 18.3 |  | 4.34 | 19.6 |
| 32.9 | COc1cc(OCC(=O)O)ccc1C(=O)/C=C/c1cc(Br)cc(Br)c1 |  | 34.8 | 52 |  | 22.8 | > 100 |
|  | COc1cc(N2CCOCC2)ccc1C(=O)/C=C/c1cc(Br)cc(Br)c1 |  | 40.2 | 33.2 |  |  |  |
| 32.8 | COc1ccc(CNC(=O)Nc2ncc([N+](=O)[O-])s2)cc1 |  | 14.6 | 9.2 |  | 37.8 | > 100 |
|  | CCOc1ccc(C(=O)/C=C/c2cc(Br)cc(Br)c2)c(OCC)c1 | inactive | 17.1 |  |  |  |  |
| 13.2 | O=C(/C=C/c1cccc(Br)c1)c1ccc2c(c1)OCCO2 |  | 48.5 | 39.5 |  | 6.81 | 76.5 |
| 7.87 | COc1ccc(C(=O)/C=C/c2cccc(Br)c2)c(O)c1 |  | 44.8 | 51.7 |  | 7.11 | 7.93 |
|  | COc1cc(OC2CCCOC2)ccc1C(=O)/C=C/c1cccc(Br)c1 (stereo not given) |  | 23.7 | 31.8 |  |  |  |
|  | COc1cc(O)c(C(=O)/C=C/c2cc(Cl)ccn2)c(OC)c1 |  | 41.3 | 32.9 |  |  |  |
|  | COc1ccc(C(=O)/C=C/c2cccc(Br)c2)c(OC)c1 |  | 29.6 | 45.4 |  |  |  |
|  | COc1cccc(O)c1C(=O)/C=C/c1cccc(Br)c1 |  | 40.6 | 35 |  |  |  |
|  | COc1cc(O)c(C(=O)CCc2cccc(Br)c2)c(OC)c1 |  | 32.8 | 34.5 |  |  |  |
|  | COc1cc(OC)c(C(=O)/C=C/c2cc(Br)cc(Br)c2)c(OC)c1 |  | 31.4 | 31.1 |  |  |  |
|  | CCOC(=O)COc1ccc(C(=O)/C=C/c2cc(Br)cc(Br)c2)c(OC)c1 |  |  | 39.2 | inactive |  |  |
|  | CCOC(=O)COc1ccc(C(=O)/C=C/c2cccc(Br)c2)c(OC)c1 |  |  | 37.3 | inactive |  |  |
|  | O=C(/C=C/c1cc(Br)cc(Br)c1)c1ccc2c(c1)OCCO2 |  | 37.6 | 36.7 |  |  |  |
